From patent publication US20140121233A1, “Synthesis and Characterization of Second Generation Benzofuranone Ring Substituted Noscapine Analogs” (GEORGIA STATE UNIVERSITY RESEARCH FOUNDATION, INC., priority 2011, published 2014) come the findings set out here.

One data set relates to MDA-MB-231 cells. Put plainly: Cell-cycle analysis by flow cytometry. It counts as cell-based. As to conditions: 25 μM; for G2/M population up to 24 h: 12 and 24 h. The protocol: Flow-cytometric evaluation of the cell-cycle status was performed as described previously. Control and drug treated cells were centrifuged, washed with ice-cold PBS, and fixed in 70% ethanol. Tubes containing the cell pellets were stored at 4° C. for at least 24 h. Cells were then centrifuged at 1000 g for 10 min and the supernatant was discarded. The pellets were washed twice with 5 ml of PBS and then stained with 0.5 ml of propidium iodide (0.1% in 0.6% Triton-X in PBS) and 0.5 ml of RNase A (2 mg/ml) for 45 min in dark. Samples were then analyzed on a BD FACSCanto II flow-cytometer (BD Biosciences, Sparks, Md.).
To gain further insights into the precise mechanisms responsible for inhibition of cellular proliferation, we next examined the effect of benzofuranone ring substituted analogs on cell cycle distribution profiles of breast cancer MDA-MB-231 cells. The effect of compounds 3-7 on mitotic index (percent G2/M cells) and apoptotic index (percent sub-G1 cells) as a function of time in MDA-MB-231 cells was studied using fluorescence activated cell sorting (FACS) analysis. All 5 compounds were used at 25 μM concentration over 48 h of treatment.
Although staining of DNA with propidium iodide is extremely useful to determine the percent cell population in various cell-cycle phases, it has its limitations. For example, it cannot dissect out the differences between G2 and M phases as both have 4N DNA amounts. Thus, to explore further, a mitosis specific marker, MPM-2, was used to distinctly identify which phase the cells were in.
For orientation: Flow cytometry measures light scatter and fluorescence of single cells or particles in a stream.

A further data set concerns A549 (lung) cancer cells. Put plainly: MTT cytotoxicity assay, A549. Format: cell-based. As to the method:
(§1) CEM (lymphoma), A549 (lung), PC-3 (prostate), MIA PaCa-2 (pancreatic), MCF-7 and MDA-MB-231 (breast) cancer cells were purchased from ATCC. PC3, A549, MDA-MB-231 and CEM were cultured in RPMI-1640 medium supplemented with 10% Fetal Bovine Serum (FBS) and 1% penicillin/streptomycin. MIA PaCa-2 and MCF-7 cells were cultured in DMEM supplemented with 10% FBS and 1% penicillin/streptomycin. Primary human dermal fibroblasts (HDF) from the dermis of normal human neonatal foreskin were obtained from the Dermatology Department, Emory University. MTT dye (Thiazolyl Blue Tetrazolium Bromide) dimethyl sulfoxide (DMSO), propidium iodide and RNase were purchased from Sigma (St. Louis, Mo.). Cells were cultured at 37° C. with 5% CO2.
(§2) MTT (3-(4,5-dimethylthiazol-2-yl)-2,5-diphenyltetrazolium bromide) assay was employed to evaluate the proliferative capacity of cells. Essentially, MTT is a colorimetric assay, which utilizes the […] tetrazolium dye and converts it into a colored formazan salt, which can be quantified by measuring absorbance at 570 nm. Briefly, a 96-well format was used to seed […] medium containing cells at a density of 5×10^3 cellsper well. After 24 h of incubation, cells were treated with gradient concentration of the test compounds, which were dissolved in DMSO. The final concentration of DMSO in the culture medium was maintained at 0.1%. After 48 h of drug incubation, the spent medium was removed and the wells were washed twice with PBS. 100 μl of fresh medium and 10 μl of MTT (5 mg/ml in PBS) was added to the wells and cells were incubated at 37° C. in dark for 4 h. The formazan product was dissolved by adding 100 μl of 100% DMSO after removing the medium from each well. The absorbance was measured at 570 nm using a Spectra Max Plus multi-well plate reader (Molecular Devices, USA).

In data set [1] the test system is CEM (lymphoma) cancer cells. Put plainly: MTT cytotoxicity assay, CEM. It counts as cell-based. As to conditions: 48 h drug incubation. The protocol:
as §1, §2
Background: Tetrazolium dyes change colour on reduction, which living cells bring about.

The test system of data set [2] is MCF-7 (breast) cancer cells. Put plainly: MTT cytotoxicity assay, MCF-7. It counts as cell-based. The protocol: as §1, §2
Data set [3] concerns MIA PaCa-2 (pancreatic) cancer cells. The data set can be described thus: MTT cytotoxicity assay, MIA PaCa-2. It counts as cell-based. As to the method: as §1, §2
Data set [4] deals with cancer cell lines (A549, CEM, MCF-7, MIA PaCa-2, PC-3). The data set can be described thus: MTT cytotoxicity assay, several cancer cell lines together. Format: cell-based. The conditions noted are these: for antiproliferative activity, comparison in words: across cell lines of Table 3. As to the method: as §1, §2
For data set [5], the system named is PC-3 (prostate) cancer cells. Put plainly: MTT cytotoxicity assay, PC-3. It counts as cell-based. The conditions noted are these: 48 h drug incubation. The protocol:
as §1, §2

The mark [6] stands for this setting: Homo sapiens, A549, 48 h drug incubation.
[7] abbreviates: Homo sapiens, MCF7, 48 h drug incubation.
Setting [8] is: Homo sapiens, MIA PaCa-2, 48 h drug incubation.

SMILES strings stand for the structures. Like-named read-outs stand apart in the source and are kept apart here.

Turning to `COc1ccc2c(c1O)C(=O)O[C@@H]2[C@H]1c2c(cc3c(c2OC)OCO3)CCN1C` [Compound 2, (S)-7-hydroxy-6-methoxy-3-((R)-4-methoxy-6-methyl-5,6,7,8-tetrahydro[1,3]dioxolo-[4,5-g]isoquinolin-5-yl)isobenzofuran-1(3H)-one], the melting point is 142 to 143 °C.

`COc1ccc2c(c1OC(C)=O)C(=O)O[C@@H]2[C@H]1c2c(cc3c(c2OC)OCO3)CCN1C` [Compound 3, (S)-5-methoxy-1-(R)-4-methoxy-6-methyl-5,6,7,8-tetrahydro-[1,3]dioxolo[4,5-g]isoquinolin-5-yl)-3-oxo-1,3-dihydroisobenzofuran-4-yl acetate]: the “G2/M population up to 24 h” value in the data set with MDA-MB-231 cells is “G2/M population increased considerably”. The “G2/M population at 48 h” value with MDA-MB-231 cells (48 h) was “G2/M population decreased significantly”. Further, the IC50 in the data set on A549 (lung) cancer cells (48 h drug incubation) was 3.2 µM; in data set [1], 15.5 µM; in data set [2] (48 h drug incubation), 166 µM; in data set [3] (48 h drug incubation), 1 µM; in data set [4] (lung, lymphoma, pancreatic and prostate, read-out: IC50 values, lung, lymphoma, pancreatic and prostate cancer cells) it was 1 to 15 µM; in data set [5], 9.3 µM. For the same compound, the “antiproliferative activity, comparison in words” value in data set [4] was “generally most-effective against most cell lines”.

With `COc1ccc2c(c1OC(=O)c1ccccc1)C(=O)O[C@@H]2[C@H]1c2c(cc3c(c2OC)OCO3)CCN1C` [Compound 4, (S)-5-methoxy-1-(R)-4-methoxy-6-methyl-5,6,7,8-tetrahydro-[1,3]dioxolo[4,5-g]isoquinolin-5-yl)-3-oxo-1,3-dihydroisobenzofuran-4-yl benzoate], the IC50 in the data set on A549 (lung) cancer cells (48 h drug incubation) is 4.5 µM; in data set [1] it was 49 µM; in data set [2] (48 h drug incubation), 34 µM; in data set [3] (48 h drug incubation), 1.7 µM; in data set [4] (lung, pancreatic and prostate, read-out: IC50 values, lung, pancreatic and prostate cancer cells) it was less than 5 µM; in data set [5], 4.8 µM.

As for `CCNC(=O)Oc1c(OC)ccc2c1C(=O)O[C@@H]2[C@H]1c2c(cc3c(c2OC)OCO3)CCN1C` [Compound 5], in the data set on MDA-MB-231 cells, the “G2/M population up to 24 h” value is given as “G2/M population increased considerably”. For the same compound, in the data set with MDA-MB-231 cells (48 h), the “G2/M population at 48 h” value is recorded as “mostly remained arrested in G2/M phase”. The “apoptotic index (sub-G1)” value in the data set on MDA-MB-231 cells (48 h) is “lower compared to compound 3”. The “duration of G2 arrest” value in the data set with MDA-MB-231 cells (MPM-2 marker) is “the arrest was maintained until 48 h”. For the same compound, the IC50 was 5.6 µM in the data set with A549 (lung) cancer cells (48 h drug incubation); 1.7 µM in data set [1]; 49 µM in data set [2] (48 h drug incubation); 49 µM in data set [3] (48 h drug incubation); 6.6 µM in data set [5].

In the case of `COc1ccc2c(c1OC(=O)Nc1ccccc1)C(=O)O[C@@H]2[C@H]1c2c(cc3c(c2OC)OCO3)CCN1C` [Compound 6, (S)-5-methoxy-1-0)-4-methoxy-6-methyl-5,6,7,8-tetrahydro-[1,3]dioxolo[4,5-g]isoquinolin-5-yl)-3-oxo-1,3-dihydroisobenzofuran-4-yl phenylcarbamate], the IC50 is 50 µM in the data set on A549 (lung) cancer cells (48 h drug incubation); 250 µM in data set [1]; 182 µM in data set [2] (48 h drug incubation); 1 µM in data set [3] (48 h drug incubation); 50 to 250 µM in data set [4] (majority of the cell lines, read-out: IC50 values, majority of the cell lines); 83.2 µM in data set [5].

Regarding `COc1ccc2c(c1OC(=O)NCc1ccccc1)C(=O)O[C@@H]2[C@H]1c2c(cc3c(c2OC)OCO3)CCN1C` [Compound 7, (S)-5-methoxy-1-((R)-4-methoxy-6-methyl-5,6,7,8-tetrahydro-[1,3]dioxolo[4,5-g]isoquinolin-5-yl)-3-oxo-1,3-dihydroisobenzofuran-4-yl benzylcarbamate], the IC50 was determined as 25 µM in the data set on A549 (lung) cancer cells (setting [6]); 7.1 µM in data set [1]; 74.1 µM in data set [2] (setting [7]); 24.5 µM in data set [3] (setting [8]); 49 µM in data set [5]. Further, in data set [4], the “antiproliferative activity, comparison in words” value is “relatively lower IC50 values when compared to compound 6”.

As to `COc1ccc2c(c1OC)C(=O)O[C@@H]2[C@H]1c2c(cc3c(c2OC)OCO3)CCN1C` [Noscapine], the IC50 with A549 (lung) cancer cells (setting [6]) stood at 73 µM; in data set [1], 20 µM; in data set [2] (setting [7]), 45 µM; in data set [3] (setting [8]), 70 µM; in data set [5], 51 µM.

As usually defined, the melting point is the temperature of the solid-liquid transition. As usually defined, the IC50 is the point on the concentration scale where inhibition reaches its midpoint.
